The subject of one series is EGFP-TAU protein. Kind of series: Screening with mCherry-2A-EGFP-TAU assay cells, Western blot analysis. Format: cell-based, human. An excerpt: An assay cell having the simultaneous expression system of EGFP-fused TAU and mCherry (mCherry-2A-EGFP-TAU) as shown in the model diagram of FIG. 5 was produced. Specifically, the process was as follows. EGFP was fused with TAU (EGFP-TAU), and further, it was connected in-frame by using 2A peptide and mCherry gene that codes a red fluorescent protein (mCherry-2A-EGFP-TAU). The 2A peptide is an amino acid sequence enabling a bicistronic gene expression. Thereby, mCherry-2A-EGFP-TAU is translated simultaneously from the top of a single mRNA. A vector expressing the gene (mCherry-2A-EGFP-TAU) was produced in the following manner.

A further series addresses T1, FLAGx3-DYRK1A protein (Homo sapiens, UniProt Q13627).
T1 construct: 2A peptide (what is left of it after self-cleavage) (C); expressed in transfected cells
Kind of series: Screening with FLAGx3-DYRK1A-2A-HAx3-EGFP assay cells, Western blotting. Format: cell-based. The conditions noted are these: Western blot; for amount of intracellular DYRK1A protein: concentration of 4 μm, FIG. 8; for amount of FLAGx3-DYRK1A (FLAG-DYRK1A) protein within the cells: FIGS. 9-12, constant concentration not stated. The method, then:
Cultured cells with expressed FLAGx3-DYRK1A-2A-HAx3-EGFP (assay cells) were cultured on a plate, and test compounds of a constant concentration were added to the culture solution for a further cultivation. After the cultivation, the amounts of FLAGx3-DYRK1A, HAx3-EGFP, and GAPDH were quantitatively analyzed by a Western blotting method, and the ratio was analyzed.
After the cultivation, the amounts of FLAGx3-DYRK1A, HAx3-EGFP, and GAPDH were quantitatively analyzed by a Western blotting method, and the ratio was analyzed.
After the cultivation, the respective amounts of FLAGx3-DYRK1A, HAx3-EGFP, and GAPDH were quantitatively analyzed by a Western blotting method, and the ratio was analyzed.

A further series concerns the target T2, DYRK1A (Rattus norvegicus, UniProt Q63470).
T2 construct: from tissue; host or cells: living rat (whole animal); blood plasma analysed for homocysteine
Kind of series: Monitoring of DYRK1A activity inhibition using homocysteine in blood as index. Format: in vivo. The conditions noted are these: rats, oral, 18 mg/kg, FIG. 7. The procedure: DYRK1A inhibitor Harmine was orally administered to rats, and the post-administration homocysteine concentration in blood was measured. The specific conditions are as follows, and the results are illustrated in FIG. 7.
After dissolving the DYRK1A inhibitor Harmine in an administration solvent of 0.9% NaCl, about 1 ml per individual was orally administered (final administration concentration: 18 mg/kg). At certain interval after the administration, the blood was collected from caudate veins. From the blood, blood plasma was separated and preserved in the presence of EDTA-2Na. Analysis of the homocysteine concentration in the blood plasma was consigned to SRL. Specifically, the measurement was conducted by extracting fractures including homocysteine from the blood plasma and then analyzing the amount of homocysteine included in the extract by HPLC (see Araki A et al: Journal of Chromatography 422, 43-52 1987, Araki A: Gendai-Iryou 22, 10, 2544-2549 1990).

In the case of `Fc1ccc(N2CCN(c3ccccc3)CC2)c(NC(=S)c2ccncc2)c1` [Compound 2, N-[5-fluoro-2-(4-phenyl-1-piperazinyl)phenyl]isonicotinthioamide], the melting point was in the range of 183 to 186 °C. In addition, in the series on EGFP-TAU protein, the “effect on stability of TAU protein” value was “make TAU protein unstable and allow the protein to decompose”; the “effect on transcription and translation of TAU” value is on record as “not to affect at all”. Besides, in the series with EGFP-TAU protein (Western blot, FIG. 6), the “amount of the EGFP-TAU protein within the cells” value is “reduces only the amount of the EGFP-TAU protein” and the “amount of the internal standard mCherry protein” value is recorded as “does not affect”.
In turn, `COc1ccc(/C=C2\SC(=S)NC2=O)cc1C#CC1CCCCC1` [Compound 3, (Z)-5-(3-(cyclohexylethynyl)-4-methoxybenzylidene)-2-thioxothiazolidin-4-one] registered a melting point of 185 to 186 °C. For the same compound, the “amount of intracellular DYRK1A protein” value on FLAGx3-DYRK1A protein is “capable of reducing”.
On to `COc1ccc(/C=C2\SC(=S)NC2=O)cc1C#CC1C2CC3CC(C2)CC1C3` (stereo not drawn) [Compound 4, (Z)-5-(3-(2-adamantylethynyl)-4-methoxybenzylidene)-2-thioxothiazolidin-4-one], for which the melting point was in the range of 266 to 267 °C. In addition, on FLAGx3-DYRK1A protein, the “amount of intracellular DYRK1A protein” value is “capable of reducing”.
With `COc1ccc(/C=C2\SC(=S)NC2=O)cc1-c1cccc(C)c1` [Compound 5], the melting point was in the range of 204 to 205 °C. For the same compound, the “amount of intracellular DYRK1A protein” value at FLAGx3-DYRK1A protein is listed as “capable of reducing”.
The compound `COc1ccc(/C=C2\SC(=S)NC2=O)cc1-c1cc(C(F)(F)F)cc(C(F)(F)F)c1` [Compound 6, (Z)-5-(3,5-bis(trifluoromethyl)phenyl-4-methoxybenzylidene)-2-thioxothiazolidin-4-one] yielded a melting point of 244 to 245 °C.
`COc1ccc(/C=C2\SC(=S)NC2=O)cc1-c1cccc(C(F)(F)F)c1` [Compound 7, (Z)-5-(3-(trifluoromethyl)phenyl-4-methoxybenzylidene)-2-thioxothiazolidin-4-one] registered a melting point of 209 to 210 °C.
Same read-out and setting: for `COc1ccc(/C=C2\SC(=S)NC2=O)cc1-c1cc(C)cc(C)c1` [Compound 8, (Z)-5-(3,5-dimethylphenyl-4-methoxybenzylidene)-2-thioxothiazolidin-4-one] the value was 238 to 239 °C.
Compound `COc1ccc2c([nH]c3c(C)nccc32)c1C#C[Si](C)(C)C` [Compound 9, 8-[2-(trimethylsilyl)ethynyl]harmine] came in with a melting point of 185 to 186 °C. Also, at FLAGx3-DYRK1A protein, the “amount of FLAGx3-DYRK1A (FLAG-DYRK1A) protein within the cells” value is reported as “reduces only the amount of the FLAG-DYRK1A protein”. For the same compound, the “amount of the internal standard EGFP protein” value on FLAGx3-DYRK1A protein (FIGS. 10-11) is “does not affect”.
Compound `COc1ccc2c([nH]c3c(C)nccc32)c1C#CC1CCCCC1` [Compound 10, 8-[2-(cyclohexyl)ethynyl]harmine] came in with a melting point of 198 to 199 °C. In addition, the “amount of FLAGx3-DYRK1A (FLAG-DYRK1A) protein within the cells” value on FLAGx3-DYRK1A protein is reported as “reduces the FLAGx3-DYRK1A protein”.
On to `COc1ccc2c(c1)[nH]c1c(C)nccc12` [Harmine], for which, on DYRK1A (after two hours from administration), the homocysteine in blood entry is “raised rapidly”. Also, the “homocysteine in blood compared with controls” value at DYRK1A (for 5 hours) was “higher numerical values in comparison with controls”.
